Experimental findings from publication PMC10174618, “Monoterpenoid aryl hydrocarbon receptor allosteric antagonists protect against ultraviolet skin damage in female mice” (Nature Communications, 2023) are described below.

What all share (assay): biochemical
Holding throughout (parameters): KINOMEscan scanMAX active site-directed competition binding assay, percent of control, 468 kinases
What all share (details): competition binding, percent of control

One assay concerns the target T1, NDR2 (Homo sapiens, UniProt Q9Y2H1).
T1 construct: gene STK38L
Summed up: (§1)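 Single-concentration screen (100 μM S-carvone) in a competition binding panel of 468 human kinases (KINOMEscan scanMAX); results given as percent of control, hit cutoff 35%.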

A further assay addresses PKN2 (Homo sapiens, UniProt Q16513). Summed up:
as §1

A further assay addresses T2, JNK3 (Homo sapiens, UniProt P53779).
T2 construct: gene MAPK10
Summed up: as §1

The target in a further assay is T3, LKB1 (Homo sapiens, UniProt Q15831).
T3 construct: gene STK11
A digest of the protocol:
as §1

Another assay concerns the target CLK4 (Homo sapiens, UniProt Q9HAZ1). A digest of the protocol: as §1
The target of a further assay is IRAK1 (Homo sapiens, UniProt P51617). Summed up: as §1
The target in the next assay is T4, PCTK3 (Homo sapiens, UniProt Q07002).
T4 construct: gene CDK18
Summed up: as §1

For the next assay, the target named is DYRK2 (Homo sapiens, UniProt Q92630). A digest of the protocol: as §1
For another assay, the target named is T5, PFTK1 (Homo sapiens, UniProt O94921).
T5 construct: gene CDK14
Summed up: as §1

The target of the next assay is ALK (Homo sapiens, UniProt Q9UM73). A digest of the protocol:
as §1

The target of the next assay is EGFR (Homo sapiens, UniProt P00533). A digest of the protocol:
as §1

The target in another assay is CSNK1G2 (Homo sapiens, UniProt P78368). A digest of the protocol: as §1
For a further assay, the target named is AXL (Homo sapiens, UniProt P30530). A digest of the protocol: as §1
The target of a further assay is T6, PIK4CB (Homo sapiens, UniProt Q9UBF8).
T6 construct: gene PI4KB
A digest of the protocol:
as §1

For the next assay, the target named is EPHA1 (Homo sapiens, UniProt P21709). Summed up:
as §1

The target in a further assay is T7, VEGFR2 (Homo sapiens, UniProt P35968).
T7 construct: gene KDR
Summed up: as §1

Another assay concerns the target ACVR1 (Homo sapiens, UniProt Q04771). Summed up:
as §1

Another assay addresses T8, SNARK (Homo sapiens, UniProt Q9H093).
T8 construct: gene NUAK2
Summed up: as §1

For assay [1], the target named is T9, RSK2(Kin.Dom.2-C-terminal) (Homo sapiens, UniProt P51812).
T9 construct: gene RPS6KA3; Kin.Dom.2-C-terminal
Summed up: as §1

Another assay has as its target WNK4 (Homo sapiens, UniProt Q96J92). Summed up:
as §1

Another assay has as its target T10, MKK7 (Homo sapiens, UniProt O14733).
T10 construct: gene MAP2K7
A digest of the protocol:
as §1

A further assay has as its target ULK1 (Homo sapiens, UniProt O75385). A digest of the protocol:
as §1

Sequence of ALK (Q9UM73 whole entry): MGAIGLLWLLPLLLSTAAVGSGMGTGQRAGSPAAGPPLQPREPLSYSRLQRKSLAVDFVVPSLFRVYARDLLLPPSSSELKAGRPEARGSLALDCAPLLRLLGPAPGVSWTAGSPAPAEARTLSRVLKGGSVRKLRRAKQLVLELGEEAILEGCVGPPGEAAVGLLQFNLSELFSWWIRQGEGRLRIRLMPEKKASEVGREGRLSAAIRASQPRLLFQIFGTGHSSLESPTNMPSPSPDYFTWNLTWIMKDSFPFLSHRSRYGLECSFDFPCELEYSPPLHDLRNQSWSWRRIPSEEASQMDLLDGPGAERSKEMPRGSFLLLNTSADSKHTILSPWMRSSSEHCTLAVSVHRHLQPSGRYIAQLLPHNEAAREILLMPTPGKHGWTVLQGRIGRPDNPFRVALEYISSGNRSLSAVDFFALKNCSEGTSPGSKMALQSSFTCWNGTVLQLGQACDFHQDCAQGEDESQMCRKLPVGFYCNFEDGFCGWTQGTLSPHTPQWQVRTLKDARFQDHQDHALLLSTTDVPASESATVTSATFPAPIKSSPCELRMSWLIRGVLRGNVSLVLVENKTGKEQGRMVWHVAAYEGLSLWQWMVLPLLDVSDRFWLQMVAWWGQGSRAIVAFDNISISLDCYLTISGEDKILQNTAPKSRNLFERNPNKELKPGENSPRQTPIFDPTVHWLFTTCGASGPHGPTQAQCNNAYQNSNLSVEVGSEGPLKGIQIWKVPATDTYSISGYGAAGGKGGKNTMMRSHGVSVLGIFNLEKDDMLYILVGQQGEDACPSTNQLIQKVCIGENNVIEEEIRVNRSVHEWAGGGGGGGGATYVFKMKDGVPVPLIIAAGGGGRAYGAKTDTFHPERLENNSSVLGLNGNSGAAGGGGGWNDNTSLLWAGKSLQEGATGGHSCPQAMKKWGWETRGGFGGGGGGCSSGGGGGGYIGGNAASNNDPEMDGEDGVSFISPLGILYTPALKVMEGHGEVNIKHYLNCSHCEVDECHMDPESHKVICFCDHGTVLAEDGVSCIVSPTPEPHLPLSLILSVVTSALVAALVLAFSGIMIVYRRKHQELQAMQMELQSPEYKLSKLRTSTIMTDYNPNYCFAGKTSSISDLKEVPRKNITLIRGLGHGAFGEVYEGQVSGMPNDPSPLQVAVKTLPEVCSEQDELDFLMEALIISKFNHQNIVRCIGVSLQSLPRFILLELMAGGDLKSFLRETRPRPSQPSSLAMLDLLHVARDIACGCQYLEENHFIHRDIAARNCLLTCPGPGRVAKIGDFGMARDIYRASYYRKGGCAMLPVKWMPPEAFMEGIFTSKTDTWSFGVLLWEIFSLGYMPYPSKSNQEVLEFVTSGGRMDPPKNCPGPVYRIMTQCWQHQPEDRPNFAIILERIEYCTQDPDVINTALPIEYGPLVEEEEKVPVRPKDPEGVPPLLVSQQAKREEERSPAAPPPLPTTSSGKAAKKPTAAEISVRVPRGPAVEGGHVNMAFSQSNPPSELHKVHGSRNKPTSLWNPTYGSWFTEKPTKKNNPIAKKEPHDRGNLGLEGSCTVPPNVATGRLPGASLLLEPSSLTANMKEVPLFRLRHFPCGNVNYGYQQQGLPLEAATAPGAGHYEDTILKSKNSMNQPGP
T3 sequence (Q15831 whole entry): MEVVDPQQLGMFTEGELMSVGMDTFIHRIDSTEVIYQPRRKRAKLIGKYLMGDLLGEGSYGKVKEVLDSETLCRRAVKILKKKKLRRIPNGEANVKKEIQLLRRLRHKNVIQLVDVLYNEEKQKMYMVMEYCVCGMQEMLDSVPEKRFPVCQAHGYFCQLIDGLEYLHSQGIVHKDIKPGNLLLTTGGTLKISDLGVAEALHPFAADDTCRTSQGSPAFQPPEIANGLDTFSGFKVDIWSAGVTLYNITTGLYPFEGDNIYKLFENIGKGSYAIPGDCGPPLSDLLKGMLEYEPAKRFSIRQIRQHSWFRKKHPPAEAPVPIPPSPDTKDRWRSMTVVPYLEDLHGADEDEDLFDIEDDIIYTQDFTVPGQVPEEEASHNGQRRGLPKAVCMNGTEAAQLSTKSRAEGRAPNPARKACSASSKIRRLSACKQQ
Sequence of EPHA1 (P21709 whole entry): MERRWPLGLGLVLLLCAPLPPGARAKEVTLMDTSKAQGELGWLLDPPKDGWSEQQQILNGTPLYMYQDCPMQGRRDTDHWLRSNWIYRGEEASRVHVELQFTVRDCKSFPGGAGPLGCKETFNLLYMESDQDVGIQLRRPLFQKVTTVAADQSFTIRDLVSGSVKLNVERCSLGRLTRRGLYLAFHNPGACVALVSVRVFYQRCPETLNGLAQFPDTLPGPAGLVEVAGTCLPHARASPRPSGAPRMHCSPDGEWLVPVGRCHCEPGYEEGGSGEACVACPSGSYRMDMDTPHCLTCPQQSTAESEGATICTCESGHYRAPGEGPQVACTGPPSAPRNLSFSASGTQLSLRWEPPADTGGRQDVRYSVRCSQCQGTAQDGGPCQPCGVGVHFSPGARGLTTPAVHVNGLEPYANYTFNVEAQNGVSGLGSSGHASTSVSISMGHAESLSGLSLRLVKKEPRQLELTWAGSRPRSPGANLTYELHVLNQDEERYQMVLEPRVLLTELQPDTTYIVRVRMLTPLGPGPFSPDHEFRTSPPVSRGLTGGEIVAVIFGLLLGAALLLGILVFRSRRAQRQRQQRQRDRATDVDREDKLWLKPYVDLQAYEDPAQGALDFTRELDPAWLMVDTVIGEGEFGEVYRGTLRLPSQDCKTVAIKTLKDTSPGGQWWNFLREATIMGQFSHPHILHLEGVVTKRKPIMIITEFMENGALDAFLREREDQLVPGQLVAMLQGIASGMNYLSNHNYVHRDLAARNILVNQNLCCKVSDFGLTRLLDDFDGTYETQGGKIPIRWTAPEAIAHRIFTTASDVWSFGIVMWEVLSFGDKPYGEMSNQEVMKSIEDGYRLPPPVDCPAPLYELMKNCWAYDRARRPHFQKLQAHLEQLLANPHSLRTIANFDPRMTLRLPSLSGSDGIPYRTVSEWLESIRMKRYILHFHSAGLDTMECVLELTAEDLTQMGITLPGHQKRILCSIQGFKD
Sequence of DYRK2 (Q92630 whole entry): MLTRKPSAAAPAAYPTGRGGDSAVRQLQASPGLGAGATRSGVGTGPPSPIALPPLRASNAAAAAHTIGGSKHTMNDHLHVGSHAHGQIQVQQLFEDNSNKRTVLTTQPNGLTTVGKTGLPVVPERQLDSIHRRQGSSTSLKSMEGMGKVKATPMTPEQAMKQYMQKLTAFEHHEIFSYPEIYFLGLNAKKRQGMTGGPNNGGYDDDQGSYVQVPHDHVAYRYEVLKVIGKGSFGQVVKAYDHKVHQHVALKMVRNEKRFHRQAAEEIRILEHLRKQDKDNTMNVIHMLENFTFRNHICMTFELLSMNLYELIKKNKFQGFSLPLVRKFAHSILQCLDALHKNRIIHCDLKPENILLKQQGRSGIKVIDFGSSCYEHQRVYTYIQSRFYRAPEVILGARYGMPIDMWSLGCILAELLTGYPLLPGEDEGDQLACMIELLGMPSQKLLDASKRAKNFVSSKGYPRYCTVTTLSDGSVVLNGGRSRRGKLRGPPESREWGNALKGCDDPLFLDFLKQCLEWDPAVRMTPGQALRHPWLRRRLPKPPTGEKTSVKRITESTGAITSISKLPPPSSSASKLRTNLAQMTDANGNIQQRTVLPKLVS
Sequence of CLK4 (Q9HAZ1 whole entry): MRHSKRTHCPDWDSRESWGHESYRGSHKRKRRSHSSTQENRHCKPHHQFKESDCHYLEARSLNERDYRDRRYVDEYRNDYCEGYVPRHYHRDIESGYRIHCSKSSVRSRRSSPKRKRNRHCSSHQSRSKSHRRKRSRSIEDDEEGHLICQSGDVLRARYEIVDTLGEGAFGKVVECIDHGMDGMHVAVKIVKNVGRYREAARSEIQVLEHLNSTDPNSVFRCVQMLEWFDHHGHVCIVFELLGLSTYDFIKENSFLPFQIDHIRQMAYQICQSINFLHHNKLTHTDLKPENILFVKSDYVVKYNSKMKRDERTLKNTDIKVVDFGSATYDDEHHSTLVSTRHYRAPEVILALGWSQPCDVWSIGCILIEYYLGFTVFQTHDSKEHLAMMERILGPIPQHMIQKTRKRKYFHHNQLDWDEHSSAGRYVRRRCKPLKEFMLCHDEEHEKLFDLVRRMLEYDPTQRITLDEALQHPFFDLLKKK
T6 sequence (Q9UBF8 whole entry): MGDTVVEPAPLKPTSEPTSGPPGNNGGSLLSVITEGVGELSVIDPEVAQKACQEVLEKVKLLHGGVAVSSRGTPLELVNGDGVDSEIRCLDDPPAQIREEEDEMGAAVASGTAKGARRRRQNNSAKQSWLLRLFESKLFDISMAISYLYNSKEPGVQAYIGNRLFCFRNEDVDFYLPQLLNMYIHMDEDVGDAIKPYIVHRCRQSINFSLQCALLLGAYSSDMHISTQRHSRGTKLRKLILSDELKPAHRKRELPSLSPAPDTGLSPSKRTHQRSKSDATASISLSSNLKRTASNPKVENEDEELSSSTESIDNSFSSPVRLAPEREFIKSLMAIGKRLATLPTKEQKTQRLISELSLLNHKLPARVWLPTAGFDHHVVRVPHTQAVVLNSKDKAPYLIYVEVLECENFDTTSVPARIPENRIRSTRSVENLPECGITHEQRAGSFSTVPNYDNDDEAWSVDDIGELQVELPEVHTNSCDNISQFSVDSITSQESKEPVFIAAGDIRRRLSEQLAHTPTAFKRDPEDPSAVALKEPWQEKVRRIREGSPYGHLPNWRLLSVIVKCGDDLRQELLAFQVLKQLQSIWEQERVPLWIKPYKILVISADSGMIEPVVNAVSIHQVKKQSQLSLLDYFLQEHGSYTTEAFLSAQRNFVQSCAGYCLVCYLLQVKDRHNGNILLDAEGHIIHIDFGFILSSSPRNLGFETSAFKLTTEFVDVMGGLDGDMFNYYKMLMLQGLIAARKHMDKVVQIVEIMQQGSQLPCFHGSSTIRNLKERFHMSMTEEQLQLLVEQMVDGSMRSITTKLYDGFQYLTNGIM

With `C=C(C)[C@H]1CC=C(C)C(=O)C1` [S-carvone], the remaining binding at 100 µM at NDR2 is 83%; at PKN2, 83%; on JNK3, 88%; at LKB1, 50%; at CLK4 it was 91%; at IRAK1, 65%. Further, the remaining binding at 100 µM at PCTK3 is 85%; at DYRK2, 93%; at PFTK1 it was 93%; on ALK, 73%; at EGFR, 79%; on CSNK1G2, 87%. Also, the remaining binding at 100 µM on AXL worked out at 82%; on PIK4CB, 65%; on EPHA1 it was 82%; on VEGFR2 it was 60%; on ACVR1, 89%; on SNARK it was 81%. The remaining binding at 100 µM in [1] was found to be 67%; at WNK4, 77%; on MKK7, 67%; on ULK1, 100%.
